Laboratory results as given in patent publication US20240108598A1, “Danegaptide for Use in the Treatment or Prevention of a Kidney Disease” (CIANA THERAPEUTICS APS, priority 2021, published 2024).

Experiments:
primary hPTECs [1] = assay: qPCR of cell cycle and reno-protective marker mRNA; type: cell-based, human; details: TGFβ1 10 ng/mL + danegaptide 100 nM, 12 h
Procedure: Primary hPTECs were cultured in low (5 mM) glucose±TGFβ1 (10 ng/mL)±danegaptide (100 nM) for 12 h. […] Danegaptide (100 nM) negated the increase in p16, p21, cyclinD1 (▴▴▴P<0.001; mean±SEM, n=3) and partly reversed the TGFβ1-evoked change in Klotho.
To determine if danegaptide can negate hemichannel-mediated regulation of common cell cycle and reno-protective markers, hPTECs were incubated with TGFβ1 (10 ng/mL)±danegaptide (100 nM) for 12 h and expression of candidate gene mRNA assessed through qPCR analysis.
RNA was extracted using an RNeasy mini kit (QIAGEN) and reverse transcribed (Invitrogen). Real-time PCR (SYBR GreenER, Invitrogen) was performed using a StepOne Plus instrument (Applied Biosystems Inc, Foster City, CA). cDNA expression was obtained by comparing to a standard curve of serially-diluted cDNA. The following primers were used: p16 (forward: […], reverse: […]), p21 (forward: […], reverse: […]), cyclinD1 (forward: […], reverse: […]), Klotho (forward: […], reverse: […]). Melt curve analysis confirmed primer specificity and checked for potential contamination.

Cx43 hemichannels = target: T1, Cx43 hemichannels (Homo sapiens, UniProt P17302); assay: ATP biosensing (hemichannel mediated ATP release); type: cell-based; details: for ATP release: hPTECs
T1 construct: host or cells: HK2 human kidney proximal tubule epithelial cell line
T1 sequence (P17302 whole entry): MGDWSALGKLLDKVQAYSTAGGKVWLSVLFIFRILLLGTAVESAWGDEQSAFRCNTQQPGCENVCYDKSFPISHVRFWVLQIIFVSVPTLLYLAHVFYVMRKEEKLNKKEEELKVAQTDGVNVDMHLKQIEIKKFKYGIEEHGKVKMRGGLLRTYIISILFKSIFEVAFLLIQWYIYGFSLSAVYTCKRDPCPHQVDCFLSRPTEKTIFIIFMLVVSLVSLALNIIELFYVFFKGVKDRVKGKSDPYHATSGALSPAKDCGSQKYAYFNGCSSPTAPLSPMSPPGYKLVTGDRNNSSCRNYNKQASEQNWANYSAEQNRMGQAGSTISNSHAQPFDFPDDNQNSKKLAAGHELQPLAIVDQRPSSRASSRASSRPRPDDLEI
Procedure: HK2 cells were cultured in low (5 mM) glucose with/without TGFβ1 (10 ng/ml)±danegaptide (50 or 100 nM) for 48 h. Representative biosensor traces show ATP release following removal of extracellular calcium. […] Peak responses were quantified by comparing against a known concentration of ATP (10 μM) and mean data±SEM plotted (E). Results are representative of 3 separate experiments (n=3; **P<0.01, […] ***P<0.001; one-way ANOVA and Tukey's post-test).
ATP biosensors (Sarissa Biomedical, Coventry UK) were used in a simultaneous dual-recording ampomeric setup as described previously (Price, G. W.; Chadjichristos, C. E.; Kavvadas, P.; Tang, S. C. W.; Yiu, W. H.; Green, C. R.; Potter, J. A.; Siamantouras, E.; Squires, P. E.; Hills, C. E. Blocking Connexin-43 mediated hemichannel activity protects against early tubular injury in experimental chronic kidney disease. Cell Commun. Signal. 2020, 18). A null biosensor was used to account for non-specific electro-active artefacts and subtracted from the ATP trace. Glycerol (2 mM) was included in all recording solutions to enable ATP detection. HK2 cells were seeded on glass coverslips (10 mm diameter) in low glucose DMEM/F12 (5 mmol/L) for 48 h, prior to an overnight serum-starvation. The cells were then incubated with TGFβ1 (10 ng/ml)±danegaptide (100 nM) for 48 h. The coverslips were transferred to a chamber containing Ca^2+-containing BSS perfused at 6 ml/min (37° C.) and left for 10 min to acclimatise. ATP and null biosensors were bent and lowered so that the electrode laid parallel to the cellular monolayer. Once a stable baseline occurred, perfusion of Ca^2+-free BSS stimulated hemichannel opening. After ATP release, Ca^2+-containing BSS was used to close hemichannels, followed by a calibration solution of ATP ([…]). Recordings were acquired at 4 Hz with a Micro CED (Mark2) interface using Spike (v8.03) software.

HK2 cells = assay: MTT assay (cell viability); type: cell-based, human; details: 48 h
Procedure: HK2 cells were cultured in low glucose (5 mM) for 48 h, prior to being serum-starved overnight and subsequently treated with TGFβ1 (10 ng/mL)±danegaptide (50 nM-1 μM) for 48 h (FIG. 1A, n=3).
The 3-(4,5-Dimethylthiazol-2-yl)-2,5-diphenyltetrazolium bromide (MTT) assay was performed as known in the art to assess the cytotoxic effects of danegaptide on cell proliferation. HK2 cells were seeded in 96-well plates and cultured in low glucose DMEM/F12 (5 mM) for 48 h, prior to overnight serum-starvation, then subsequently stimulated for 48 h with TGFβ1 (10 ng/ml)±danegaptide (50-1000 nM). Colourmetric measurement of formazan production corresponds to the number of viable cells.

primary hPTECs [2] = assay: Inflammation antibody array, supernatant (Table 2); type: cell-based, human; details: hPTEC supernatant; TGF-β1 10 ng/mL + DG 100 nM, 48 h
From the text: An inflammation antibody array was used to assess regulation of 31 candidate inflammatory proteins in supernatant from hPTEC cells treated with TGFβ1±danegaptide. Results are representative of 3 separate experiments and presented as mean±SEM, n=3 with key significances indicated (*P<0.05, **P<0.01, ***P<0.001; one-way ANOVA and Tukey's post-test).
A proteome profiler array (Human Cytokine Array Kit from R&D Systems, Oxfordshire, UK) was used, to determine if danegaptide negates TGFβ1-induced changes in expression and secretion of key pro-inflammatory mediators. Primary hPTECs were cultured as described above and treated with TGFβ1 (10 ng/mL)±danegaptide (100 nM) for 48 h.

Q: What does the source list for `NCC(=O)N1C[C@H](NC(=O)c2ccccc2)C[C@H]1C(=O)O` [danegaptide, (2S,4R)-1-(2-aminoacetyl)-4-benzamidopyrrolidine2-carboxylic acid]?
A: Klotho mRNA expression, of control (primary hPTECs [1]): 59.9±11.7%; cyclinD1 mRNA expression, of control (primary hPTECs [1]): 132.9±15.0%; p16 mRNA expression, of control (primary hPTECs [1]): 193±18.5%; p21 mRNA expression, of control (primary hPTECs [1]): 142.2±6.2%; optimal concentration in the microenvironment (dose finding, dye uptake and ATP biosensing) (Cx43 hemichannels; HK2 cells): 50 to 100 nM; ATP release (Cx43 hemichannels; TGFβ1 10 ng/mL + danegaptide 50 nM, 48 h): 1.90 ± 0.26 µM; ATP release (Cx43 hemichannels; TGFβ1 10 ng/mL + danegaptide 100 nM, 48 h): 0.79 ± 0.19 µM; ATP release (Cx43 hemichannels; danegaptide alone 50 nM): 0.35 ± 0.10 µM; ATP release (Cx43 hemichannels; danegaptide alone 100 nM): 0.31 ± 0.09 µM; cell viability (MTT) as compared to control (HK2 cells; TGFβ1 10 ng/mL + danegaptide 50 nM): 104.1±2.2%; cell viability (MTT) as compared to control (HK2 cells; TGFβ1 10 ng/mL + danegaptide 100 nM): 93.4±1.6%; cell viability (MTT) as compared to control (HK2 cells; TGFβ1 10 ng/mL + danegaptide 1 μM): 89.3±3.7%; cell viability (MTT) as compared to control (HK2 cells; danegaptide alone 50 nM): 95.2±7%; cell viability (MTT) as compared to control (HK2 cells; danegaptide alone 100 nM): 103±5.7%; cell viability (MTT) as compared to control (HK2 cells; danegaptide alone 1 μM): 96.6±5.3%; Angiogenin in supernatant (% compared to control) (primary hPTECs [2]): 129 ± 14.7%; Cystatin C in supernatant (% compared to control) (primary hPTECs [2]): 88 ± 6.8%; DPPIV in supernatant (% compared to control) (primary hPTECs [2]): 179 ± 37.8%; ENA 78 in supernatant (% compared to control) (primary hPTECs [2]): 119 ± 3.9%; Endoglin in supernatant (% compared to control) (primary hPTECs [2]): 94 ± 5.8%; FGF7 in supernatant (% compared to control) (primary hPTECs [2]): 102 ± 16.5%; Flt 3 Ligand in supernatant (% compared to control) (primary hPTECs [2]): 103 ± 12.8%; G-CSF in supernatant (% compared to control) (primary hPTECs [2]): 117 ± 12.0%; GM-CSF in supernatant (% compared to control) (primary hPTECs [2]): 114 ± 3.8%; HGF in supernatant (% compared to control) (primary hPTECs [2]): 88 ± 13.7%; ICAM-1 in supernatant (% compared to control) (primary hPTECs [2]): 124 ± 16.6%; IFNg in supernatant (% compared to control) (primary hPTECs [2]): 90 ± 12.7%; IGFBP-2 in supernatant (% compared to control) (primary hPTECs [2]): 90 ± 6.4%; IGFBP-3 in supernatant (% compared to control) (primary hPTECs [2]): 84.7 ± 14.3%; IL1A in supernatant (% compared to control) (primary hPTECs [2]): 89 ± 21.5%; IL3 in supernatant (% compared to control) (primary hPTECs [2]): 107 ± 38.0%; IL8 in supernatant (% compared to control) (primary hPTECs [2]): 99 ± 26.4%; IL12 p70 in supernatant (% compared to control) (primary hPTECs [2]): 63 ± 15.9%; IL13 in supernatant (% compared to control) (primary hPTECs [2]): 62 ± 27.2%; Kallikrein 3 in supernatant (% compared to control) (primary hPTECs [2]): 74 ± 20.6%; LIF in supernatant (% compared to control) (primary hPTECs [2]): 134 ± 5.4%; MCP-1 in supernatant (% compared to control) (primary hPTECs [2]): 101 ± 6.2%; MMP-9 in supernatant (% compared to control) (primary hPTECs [2]): 80 ± 8.9%; PDGF-AA/BB in supernatant (% compared to control) (primary hPTECs [2]): 99 ± 6.3%; RAGE in supernatant (% compared to control) (primary hPTECs [2]): 99 ± 12.5%; RANTES in supernatant (% compared to control) (primary hPTECs [2]): 101 ± 12.1%; Serpin E1 in supernatant (% compared to control) (primary hPTECs [2]): 81 ± 42.8%; TFF3 in supernatant (% compared to control) (primary hPTECs [2]): 98 ± 17.5%; TNF-α in supernatant (% compared to control) (primary hPTECs [2]): 139 ± 6.1%; Thrombospondin-1 in supernatant (% compared to control) (primary hPTECs [2]): 115 ± 11.9%; VEGF in supernatant (% compared to control) (primary hPTECs [2]): 217 ± 49.3%
